Results as given in paper PMC9486808 (ACS Chemical Biology, 2022).
Entries after “also recorded” stand apart in the source; their conditions may differ. Read-outs that look alike come from different tables or passages of the source. Positions of bridges follow the written chain, without caps; N, C: chain ends. Non-standard residues stand in square brackets, D forms with d. Residues, ends and D or L forms follow the SMILES beside them.

Legend:
H1 HA = H1 HA (Influenza A virus, UniProt C3W5S1); assay type: binding, Influenza A virus A/California/04/2009 (H1N1)
in vitro = settings: HeLa R19 cells and MDCKI cells
[1] = tested on: H1N1pr8 (A/PR8/8/34/Mount Sinai); assay type: cell-based, Influenza A virus
[2] = tested on: H5N1 virus carrying H5 HA of A/duck/Hunan/795/2002 in the H1N1pr8 genetic background; settings: 16 h
[3] = tested on: H3N1 virus carrying H3 HA of A/Bilthoven/1761/76 (H3N2) in the H1N1pr8 background; assay type: cell-based, Influenza A virus
H1 ectodomain [4] = target: T1, H1 ectodomain (Influenza A virus, UniProt C3W5S1); assay: biochemical; assay type: binding, Influenza A virus A/California/04/2009 (H1N1)
[5] = target: H1 ectodomain of A/California/04/2009 (H1N1) (Influenza A virus, UniProt C3W5S1); assay type: binding, Influenza A virus A/California/04/2009 (H1N1)
[6] = tested on: H1N1pdm09 (A/Netherlands/602/2009); assay type: cell-based, Influenza A virus
[7] = tested on: H1N1pdm09 (A/Netherlands/602/2009); settings: for IC50: 16 h
H1stem = assay type: binding, Influenza A virus A/Kentucky/UR06-0258/2007 (H1N1); settings: read-out: Kd1
H3 ectodomain = assay type: binding, Influenza A virus A/Fujian/411/2002 (H3N2); settings: for Kd: read-out: Kd1
H1 ectodomain [8] = target: T1, H1 ectodomain; assay: biochemical; assay type: binding, Influenza A virus A/California/04/2009 (H1N1); settings: read-out: Kd1
[9] = tested on: H5N1 virus carrying H5 HA of A/duck/Hunan/795/2002 in the H1N1pr8 genetic background; assay type: cell-based, Influenza A virus
[10] = target: full-length H1 of A/California/04/2009 (H1N1) (Influenza A virus, UniProt C3W5S1); assay type: cell-based, Influenza A virus A/California/04/2009 (H1N1); settings: pH 5
H1N1pdm09 = tested on: H1N1pdm09; set-up: species or system Influenza A virus

| SMILES | ΔTm (°C), purified peptide (H1 HA) [°C] | CC50 at 72 h (in vitro) [nM] | Inhibition of infection (infected cells relative to untreated control) [1] | IC50 [2] [nM] | Inhibition of infection (infected cells relative to untreated control) [3] | Kd (H1 ectodomain [4]) [nM] | Binding region in the HA stem (HDX-MS) [5] | Inhibition of infection (infected cells relative to untreated control) [6] | Inhibition of infection at a single concentration [7] | IC50 [7] [nM] | Kd (H1stem) [nM] | Peptide binding by SPR (in words) (H3 ectodomain) | Kd (H3 ectodomain) [nM] | Kd (H1 ectodomain [8]) [nM] | ΔTm (°C), crude peptide (H1 HA) [°C] | Inhibition of infection (infected cells relative to untreated control) [9] | Syncytia formation (cell-cell fusion) [10] | Interference of the peptide itself with hemagglutination (H1N1pdm09) | Loss of hemagglutination after pH 5 incubation (H1N1pdm09; pH 5) | Neutralizing activity in the presence of serum proteins [7] |
| --- | --- | --- | --- | --- | --- | --- | --- | --- | --- | --- | --- | --- | --- | --- | --- | --- | --- | --- | --- | --- |
| CC(C)C[C@H](NC(=O)[C@@H]1CSCC(=O)N[C@@H](Cc2ccc(O)cc2)C(=O)N[C@@H](Cc2c[nH]c3ccccc23)C(=O)N[C@@H](Cc2c[nH]cn2)C(=O)N[C@@H](CCCCN)C(=O)N[C@@H](CC(N)=O)C(=O)N[C@@H](CCCCN)C(=O)N[C@@H](Cc2ccc(O)cc2)C(=O)N[C@@H](C(C)C)C(=O)N[C@@H](CC(C)C)C(=O)N[C@@H]([C@@H](C)O)C(=O)N[C@@H](Cc2ccc(O)cc2)C(=O)N[C@@H](CO)C(=O)N1)C(=O)N[C@@H](Cc1ccccc1)C(=O)N[C@@H](C)C(=O)N[C@@H](C)C(=O)NCC(N)=O [L2] ({CH2CO}-YWHKNKYVLTYSCLFAAG-NH2; thioether N-13) | 1 | > 5000 | strongly inhibited infection | 1050 ± 300 | fell short of inhibiting | 2.4 | aa 369–387 | strongly inhibited infection | strong inhibition of infection | 69 ± 8.3 | – | – | – | – | – | – | – | – | – | – |
| CC(C)[C@@H]1NC(=O)[C@H](Cc2c[nH]c3ccccc23)NC(=O)[C@H](CCCNC(=N)N)NC(=O)[C@H](Cc2ccc(O)cc2)NC(=O)CSC[C@@H](C(=O)NCC(N)=O)NC(=O)[C@H](C(C)C)NC(=O)[C@H](C(C)C)NC(=O)[C@H](Cc2ccccc2)NC(=O)[C@H](Cc2ccc(O)cc2)NC(=O)[C@@H]2CCCN2C(=O)[C@H](CCC(=O)O)NC(=O)[C@H](CO)NC(=O)[C@H](Cc2ccccc2)NC(=O)[C@H](Cc2ccccc2)NC(=O)[C@H](CO)NC(=O)[C@H]([C@@H](C)O)NC(=O)[C@H](Cc2c[nH]c3ccccc23)NC1=O [L4] ({CH2CO}-YRWVWTSFFSEPYFVVCG-NH2; thioether N-17) | 3.4 | > 5000 | strongly inhibited infection | 234 ± 66 | fell short of inhibiting | ≤ 1 | aa 369–387 | strongly inhibited infection | strong inhibition of infection | 104 ± 10.3 | 2.6 ± 0.1 | no binding was observed | > 50 | 20.8 ± 1.4 | – | – | – | – | – | – |
| CC[C@H](C)[C@@H]1NC(=O)[C@H](CCCCN)NC(=O)[C@H](CO)NC(=O)[C@H](Cc2c[nH]c3ccccc23)NC(=O)[C@H](Cc2ccc(O)cc2)NC(=O)[C@H]([C@@H](C)CC)NC(=O)[C@H](CCCCN)NC(=O)[C@H](CC(C)C)NC(=O)[C@@H](Cc2ccc(O)cc2)NC(=O)CSC[C@@H](C(=O)NCC(N)=O)NC(=O)[C@H](Cc2c[nH]c3ccccc23)NC(=O)[C@H](CCC(=O)O)NC(=O)[C@H](CO)NC(=O)[C@H](C(C)C)NC(=O)[C@H](CC(C)C)NC(=O)CNC(=O)[C@H](Cc2c[nH]cn2)NC1=O [S3] ({CH2CO}-[dY]LKIYWSKIHGLVSEWCG-NH2; thioether N-17) | 4.2 | > 5000 | strongly inhibited infection | 17.5 ± 1.7 | fell short of inhibiting | ≤ 1 | aa 369–387 | strongly inhibited infection | strong inhibition of infection | 47.5 ± 7.1 | 37.2 ± 18.8 | no binding was observed | > 50 | 16.8 ± 0.6 | 3.8 | – | – | – | – | – |
| CC(C)C[C@@H]1NC(=O)[C@H](C(C)C)NC(=O)[C@@H](Cc2ccc(O)cc2)NC(=O)CSC[C@@H](C(=O)NCC(N)=O)NC(=O)[C@H](C(C)C)NC(=O)[C@H](Cc2c[nH]c3ccccc23)NC(=O)[C@H](Cc2c[nH]cn2)NC(=O)[C@H]([C@@H](C)O)NC(=O)[C@H](C)NC(=O)[C@H](CC(C)C)NC(=O)[C@H]([C@@H](C)O)NC(=O)CNC(=O)[C@H](Cc2c[nH]cn2)NC(=O)[C@H](CC(=O)O)NC(=O)[C@H](Cc2c[nH]c3ccccc23)NC(=O)[C@H](CCCNC(=N)N)NC(=O)[C@H](Cc2ccccc2)NC1=O [S5] ({CH2CO}-[dY]VLFRWDHGTLATHWVCG-NH2; thioether N-17) | 7.8 | > 5000 | strongly inhibited infection | – | fell short of inhibiting | ≤ 1 | aa 369–387 | strongly inhibited infection | strong inhibition of infection | – | 11.3 ± 2.5 | no binding was observed | > 50 | 8.6 ± 1.1 | 4.8 | cross-neutralization was observed | greatly reduced; also recorded: inhibits fusion between H1 expressing cells | does not interfere with hemagglutination | prevented by S5 | unaffected by the addition of serum proteins |
